Reference: publication doi:10.1101/2022.07.21.500659v1 (bioRxiv, 2022)

Key:
Type in all cases: in vivo, mouse
[1] = test system: OVX BALB/c mice; assay: Bone strength, 3-point bending of femur in OVX mice; conditions: 8 weeks of treatment
[2] = test system: OVX BALB/c mice; assay: High resolution X-ray microCT of tibia in OVX mice; conditions: 8 weeks, vs OVX+vehicle
[3] = test system: OVX BALB/c mice; assay: Circulating PTH, CTX-I and P1NP in OVX mice; conditions: plasma at necropsy, vs OVX+vehicle
[4] = test system: OVX BALB/c mice; conditions: femur midshaft cortical cross-section, FTIRI, vs vehicle-treated OVX mice
[5] = test system: OVX BALB/c mice; assay: Dynamic bone histomorphometry of tibia in OVX mice; conditions: calcein labelling

Question: `O=P(O)(O)C(O)(Cn1ccnc1)P(=O)(O)O` [zoledronic acid] was tested. Which “Reduced deformation in load-deformation curves of OVX mice” value [1] did it give?
Answer: not ameliorated

Question: And the “Increase of cortical thickness” value ([2]; midshaft tibia)?
Answer: 6%

Question: And the “Increase of trabeculae numbers” value ([2]; proximal tibia)?
Answer: 106%

Question: What about the “Increase of trabecular bone mass” value ([2]; proximal tibia) of the same compound?
Answer: 85%

Question: What about the “Change of circulating levels of P1NP” value [3] of the same compound?
Answer: −25%

Question: And the “Reduction of circulating levels of CTX-I” value [3]?
Answer: 24%

Question: What about the “Enhancement of collagen maturity” value [4] of the same compound?
Answer: None of these effects were observed

Question: What about the “Reduction of the degree of mineralization of the bone ECM” value [4] of the same compound?
Answer: None of these effects were observed

Question: And the Active mineralizing surface [5]?
Answer: reduction

Question: What about the Bone formation rate [5] of the same compound?
Answer: reduction
